Assay results published in article PMC12675575, “A BRET biosensor for measuring uncompetitive engagement of PRMT5 complexes in cells” (Nature Communications, 2025).
Values joined by “and” are separate entries in the source; they are usually repeats but may differ in a detail not shown here. Equal entries are not always repeated. Where two headings read alike, the source gives them in different places.

What was measured:
PRMT5 [1] = conditions: 3H-SAM to peptide substrate; read-out: Biochemical (nM), IC50; cited from earlier work
PRMT5:MEP50 complex = molecular target: PRMT5:MEP50 complex; design: method as in ref 4 (a number printed in a supplementary file, which may have a reference list of its own: not looked up in the article's list); conditions: read-out: SPR (pM), Kd; cited from earlier work
[2] = system: SmBB' dimethylation in MCF7 cells; design: method as in ref 4 (a number printed in a supplementary file, which may have a reference list of its own: not looked up in the article's list); conditions: read-out: In-Cell Western (nM), EC50; cited from earlier work
[3] = molecular target: NanoLuc-PRMT5 co-expressed with WDR77 (Homo sapiens, UniProt O14744); assay: Live-cell NanoBRET target engagement with BRET probe CBH-002 in HEK293 cells expressing NanoLuc-PRMT5 and unlabeled WDR77; format: cell-based; design: host or cells: HEK293; conditions: for EC50: HEK293, competitive displacement of CBH-002, 2 h, n=3
Experimental: HEK293 cells (ATCC) were cultured in DMEM (Thermo Fisher) + 10% (v/v) FBS (Seredigm), and HCT116 cells (Horizon Discovery, #PAR-034 and #R02-033) were cultured in McCoy’s 5A (Thermo Fisher) + 10% FBS, with incubation in a humidified, 37 °C/5% CO2 incubator. Cells were split 1–3 days prior to performing experiments and used at roughly 80% confluency. […] Cells were transfected according to the manufacturer’s protocol using FuGENE HD (Promega). NanoLuc fusion DNA was diluted into Transfection Carrier DNA (Promega) in Opti-MEM at a ratio of 1:9 (mass/mass), and FuGENE HD was added at a ratio of 1:3 (μg DNA:μL lipid). […] Formed complexes were combined with cells resuspended to a density of 2 × 10^5 cells/mL in Opti-MEM + 1% FBS at a ratio of 1:20 (vol:vol). […] Cells were seeded at a density of 2 × 10^5 cells/mL in Opti-MEM + 1% FBS in 100 μL (96-well). The BRET probe CBH-002 was prepared first as a 100× stock in 100% DMSO (Sigma) and then diluted to a 20× stock in NanoBRET Tracer Dilution buffer (Promega). Test compounds were prepared as 1000× stocks in 100% DMSO and diluted to 10× stocks in Opti-MEM to prepare working stocks. […] NanoBRET Complete 3x Substrate was prepared by combining Nano-Glo Substrate and Extracellular NanoLuc Inhibitor in Opti-MEM, according to the manufacturer’s protocol (Promega).
BRET ratio values were calculated by dividing the acceptor by the donor signal, and raw BRET was converted to milli-BRET (mBRET) units (mBu) by multiplying by 1000.
EC50 values were obtained by fitting the BRET probe and compound affinity curves to a sigmoidal four-parameter fit model in Graphpad Prism:1 Y=Ymin+Ymax−Ymin/1+10^LogEC50−Xh where h is the Hill Slope.
When normalized BRET was used, mBRET values were normalized using2 NormalizedBRET%=(Y−BRETmin)/BRETmax−BRETmin where y = mBRET in the presence of test compound and BRET probe, BRETmin = mBRET at the highest concentration (saturating) of test compound and BRET probe, and BRETmax = mBRET in the presence of vehicle (DMSO) and BRET probe.
Normalized concentration-response curves showing full competition were fit using a 2-parameter model:3 Y=100/1+10^LogEC50−Xh
In situations where only partial competition was observed, the normalized concentration-response curves were fit using Eq. 1 and where Ymin was constrained to >0.

[4] = molecular target: NLuc-PRMT5 co-expressed with WDR77 (Homo sapiens, UniProt O14744); assay: Compound EC50 titrations against MTA, NanoBRET in HEK293 (NLuc-PRMT5 + WDR77), with global Gaddum/Schild or Morrison fits; conditions: for Schild slope: Global Gaddum/Schild EC50 shift fit, MTA titration; for Right-shift in binding/potency on addition of MTA: HEK293, 300 µM exogenous MTA; for EC50 fold change (EC50 at 300 μM MTA versus vehicle): negative = enhanced potency under high MTA; for Hill slope (Global/Schild fit): constant across [MTA], constrained to 1 for PF06939999 and GSK3326595
Experimental: MTA (Sigma) was prepared at 100× in 100% DMSO and diluted to 10× in Opti-MEM. Inhibitors were run as 11 pt, 3-fold dilution curves and MTA as a seven point, 3-fold dilution curve starting at 100 μM. Cells were incubated for 2 h at 37 °C and 5% CO2 prior to BRET measurements. Data was normalized using Eq. (2) where BRETMIN = saturating compound + maximum [MTA], and BRETMAX = BRET signal under vehicle conditions. Curves were fit using Eq. (3), and EC50 values were plotted against MTA concentration to determine the linear range of MTA detection.

PRMT5–MEP50 = conditions: cited from earlier work; for IC50: read-out: Biochemical (nM), IC50
PRMT5/MEP50 = molecular target: PRMT5/MEP50; design: method as in ref 7,8 (a number printed in a supplementary file, which may have a reference list of its own: not looked up in the article's list); conditions: 20 μM SAM preincubation; read-out: SPR; cited from earlier work
SDMA in MTAP del cells = system: SDMA in MTAP del cells; design: method as in ref 7,8 (a number printed in a supplementary file, which may have a reference list of its own: not looked up in the article's list); conditions: read-out: In-Cell Western (nM), SDMA IC50; cited from earlier work
SDMA in MTAP WT cells [5] = system: SDMA in MTAP WT cells; design: method as in ref 7,8 (a number printed in a supplementary file, which may have a reference list of its own: not looked up in the article's list); conditions: read-out: In-Cell Western (nM), SDMA IC50; cited from earlier work
MTAP del cell lines = system: MTAP del cell lines; design: method as in ref 7,8 (a number printed in a supplementary file, which may have a reference list of its own: not looked up in the article's list); conditions: 10 day viability, read-out: Proliferation (nM), IC50; cited from earlier work
MTAP WT cell lines = system: MTAP WT cell lines; design: method as in ref 7,8 (a number printed in a supplementary file, which may have a reference list of its own: not looked up in the article's list); conditions: 10 day viability, read-out: Proliferation (nM), IC50; cited from earlier work
PRMT5 [6] = molecular target: PRMT5; design: method as in ref 5,6 (a number printed in a supplementary file, which may have a reference list of its own: not looked up in the article's list); conditions: single-cycle kinetic analysis; read-out: SPR (pM), Kd; cited from earlier work
SDMA levels in A427 = system: SDMA levels in A427; design: method as in ref 5,6 (a number printed in a supplementary file, which may have a reference list of its own: not looked up in the article's list); conditions: read-out: In-Cell Western (nM), IC50; cited from earlier work
SDMA in MTAP WT cells [7] = system: SDMA in MTAP WT cells; design: method as in ref 9 (a number printed in a supplementary file, which may have a reference list of its own: not looked up in the article's list); conditions: read-out: In-Cell Western (nM), SDMA EC50; cited from earlier work

Sequence of NanoLuc-PRMT5 co-expressed with WDR77 (O14744 whole entry, the tested form may be a part): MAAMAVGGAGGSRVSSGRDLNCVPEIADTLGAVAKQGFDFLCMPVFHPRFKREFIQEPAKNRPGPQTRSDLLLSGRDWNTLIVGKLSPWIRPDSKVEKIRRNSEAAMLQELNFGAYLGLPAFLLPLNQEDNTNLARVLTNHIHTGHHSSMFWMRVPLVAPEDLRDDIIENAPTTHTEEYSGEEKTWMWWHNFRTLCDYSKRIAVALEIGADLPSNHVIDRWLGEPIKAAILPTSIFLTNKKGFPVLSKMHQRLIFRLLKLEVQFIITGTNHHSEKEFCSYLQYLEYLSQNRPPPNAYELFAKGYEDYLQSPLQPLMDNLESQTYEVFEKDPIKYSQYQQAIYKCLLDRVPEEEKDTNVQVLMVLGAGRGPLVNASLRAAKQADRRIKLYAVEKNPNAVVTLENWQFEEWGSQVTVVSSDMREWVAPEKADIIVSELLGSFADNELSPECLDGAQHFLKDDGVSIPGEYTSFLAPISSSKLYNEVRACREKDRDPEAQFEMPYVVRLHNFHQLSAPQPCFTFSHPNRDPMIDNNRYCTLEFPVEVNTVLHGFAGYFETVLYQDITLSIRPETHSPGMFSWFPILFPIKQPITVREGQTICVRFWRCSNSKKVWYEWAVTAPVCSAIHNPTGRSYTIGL
Sequence of NanoLuc-PRMT5 co-expressed with WDR77 (Q9BQA1 whole entry partner, the tested form may be a part): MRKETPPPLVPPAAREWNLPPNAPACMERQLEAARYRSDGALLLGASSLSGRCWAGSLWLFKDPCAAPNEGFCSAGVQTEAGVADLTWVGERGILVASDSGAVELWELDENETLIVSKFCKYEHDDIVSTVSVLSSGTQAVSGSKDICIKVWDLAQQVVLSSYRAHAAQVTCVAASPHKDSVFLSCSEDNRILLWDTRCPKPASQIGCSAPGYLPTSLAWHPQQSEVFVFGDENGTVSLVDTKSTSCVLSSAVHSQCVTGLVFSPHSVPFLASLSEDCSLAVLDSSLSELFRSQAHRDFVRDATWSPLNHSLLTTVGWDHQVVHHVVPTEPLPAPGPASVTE
Sequence of NLuc-PRMT5 co-expressed with WDR77 (O14744 whole entry): as the sequence (O14744 whole entry, the tested form may be a part) above
Sequence of NLuc-PRMT5 co-expressed with WDR77 (Q9BQA1 whole entry partner): as the sequence (Q9BQA1 whole entry partner, the tested form may be a part) above

Structure (SMILES): Nc1ncnc2c1ccn2[C@@H]1O[C@H]([C@H](O)c2ccccc2)[C@@H](O)[C@H]1O [LLY-283]
- IC50 (PRMT5 [1]): 22 nM
- Kd (PRMT5:MEP50 complex): 6000 pM
- EC50 [2]: 25 nM
- remaining activity at […] ([3]; HEK293, log([compound]), uM 0.0458, vehicle = 100, read-out: Normalized BRET, Bio rep 1-3): 34%
- remaining activity at […] ([3]; HEK293, log([compound]), uM 0.52, vehicle = 100, read-out: Normalized BRET, Bio rep 1-3): 24.1%
- remaining activity at 0.3715 µM ([3]; HEK293, log([compound]), uM -0.43, vehicle = 100, read-out: Normalized BRET, Bio rep 1-3): 53.7%
- remaining activity at […] ([3]; HEK293, log([compound]), uM -0.91, vehicle = 100, read-out: Normalized BRET, Bio rep 1-3): 66.1%
- remaining activity at 0.04074 µM ([3]; HEK293, log([compound]), uM -1.39, vehicle = 100, read-out: Normalized BRET, Bio rep 1-3): 81.4%
- remaining activity at 0.0138 µM ([3]; HEK293, log([compound]), uM -1.86, vehicle = 100, read-out: Normalized BRET, Bio rep 1-3): 91.4%
- remaining activity at 0.004571 µM ([3]; HEK293, log([compound]), uM -2.34, vehicle = 100, read-out: Normalized BRET, Bio rep 1-3): 97.7%
- remaining activity at 0.001514 µM ([3]; HEK293, log([compound]), uM -2.82, vehicle = 100, read-out: Normalized BRET, Bio rep 1-3): 102%
- remaining activity at 0.0005129 µM ([3]; HEK293, log([compound]), uM -3.29, vehicle = 100, read-out: Normalized BRET, Bio rep 1-3): 107%
- remaining activity at 0.0001698 µM ([3]; HEK293, log([compound]), uM -3.77, vehicle = 100, read-out: Normalized BRET, Bio rep 1-3): 102%
- EC50 ([3]; NanoBRET EC50 (95% CI, nM)): 467 nM
- EC50 ([4]; EC50, [MTA] 0 μM, HEK293, 30 nM CBH-002): 348 nM
- EC50 ([4]; EC50, nM (MTA = 0), Global/Schild fit, HEK293): 365 nM
- Schild slope ([4]; HEK293): 1.1 (0.93 - 1.31)
- A2 (concentration of MTA needed to shift the dose response curve by a factor of 2) ([4]; Global/Schild fit, HEK293): 61 (46-79) M
- Right-shift in binding/potency on addition of MTA [4]: 6 fold
- EC50 fold change (EC50 at 300 μM MTA versus vehicle) ([4]; HEK293): 6 and 6.1
- Hill slope ([4]; [MTA] 0 μM, HEK293): 0.62
- Hill slope ([4]; [MTA] 11.11 μM, HEK293): 0.55
- Hill slope ([4]; [MTA] 100 μM, HEK293): 0.62
- Hill slope ([4]; [MTA] 300 μM, HEK293): 0.64
- Hill slope (Global/Schild fit) [4]: 0.55 (0.51 - 0.59)

Structure (SMILES): Cn1ncc(-c2ccc3c(=O)[nH]nc(CN)c3c2)c1-c1c(F)c(Cl)cc(OC2CC2)c1C#N [MRTX1719]
- IC50 (PRMT5–MEP50; MTA): 3.6 nM
- IC50 (PRMT5–MEP50; SAM): 20.4 nM
- Enhancement of biochemical IC50 in the presence of MTA (PRMT5–MEP50): 5 fold
- Kd (PRMT5/MEP50): 0.0094 nM
- IC50 (SDMA in MTAP del cells): 8 nM
- IC50 (SDMA in MTAP WT cells [5]): 653 nM
- IC50 (MTAP del cell lines): 12 nM
- IC50 (MTAP WT cell lines): 890 nM

Structure (SMILES): Nc1ncnc2c1ccn2C1OC(C(O)c2ccccc2)C(O)C1O (centres unmarked) [PF-06939999]
- Kd (PRMT5 [6]): 5.8 pM
- IC50 (SDMA levels in A427): 1.1 nM
- remaining activity at […] ([3]; HEK293, log([compound]), uM -0.48, vehicle = 100, read-out: Normalized BRET, Bio rep 1-3): 0.95%
- remaining activity at 0.1122 µM ([3]; HEK293, log([compound]), uM -0.95, vehicle = 100, read-out: Normalized BRET, Bio rep 1-3): 2.4%
- remaining activity at 0.03715 µM ([3]; HEK293, log([compound]), uM -1.43, vehicle = 100, read-out: Normalized BRET, Bio rep 1-3): 5.9%
- remaining activity at […] ([3]; HEK293, log([compound]), uM -1.91, vehicle = 100, read-out: Normalized BRET, Bio rep 1-3): 11.6%
- remaining activity at 0.004074 µM ([3]; HEK293, log([compound]), uM -2.39, vehicle = 100, read-out: Normalized BRET, Bio rep 1-3): 22.9%
- remaining activity at 0.00138 µM ([3]; HEK293, log([compound]), uM -2.86, vehicle = 100, read-out: Normalized BRET, Bio rep 1-3): 51.1%
- remaining activity at 0.0004571 µM ([3]; HEK293, log([compound]), uM -3.34, vehicle = 100, read-out: Normalized BRET, Bio rep 1-3): 72.7%
- remaining activity at 0.0001514 µM ([3]; HEK293, log([compound]), uM -3.82, vehicle = 100, read-out: Normalized BRET, Bio rep 1-3): 89%
- remaining activity at 51.29 pM ([3]; HEK293, log([compound]), uM -4.29, vehicle = 100, read-out: Normalized BRET, Bio rep 1-3): 98.4%
- remaining activity at 16.98 pM ([3]; HEK293, log([compound]), uM -4.77, vehicle = 100, read-out: Normalized BRET, Bio rep 1-3): 102%
- EC50 ([3]; read-out: NanoBRET EC50 (95% CI)): 1.7 nM
- Schild slope ([4]; HEK293): 1.15 (0.88 - 1.51)
- A2 (concentration of MTA needed to shift the dose response curve by a factor of 2) ([4]; Global/Schild fit, HEK293): 172 (137 – 211) M
- Right-shift in binding/potency on addition of MTA [4]: 3 fold
- EC50 fold change (EC50 at 300 μM MTA versus vehicle) ([4]; HEK293): 3 and 2.8
- Hill slope ([4]; [MTA] 0 μM, HEK293): 0.97
- Hill slope ([4]; [MTA] 11.11 μM, HEK293): 0.99
- Hill slope ([4]; [MTA] 100 μM, HEK293): 0.79
- Hill slope ([4]; [MTA] 300 μM, HEK293): 0.76
- Hill slope (Global/Schild fit) [4]: 1

Structure (SMILES): Cc1cc(NC(=O)C(=O)N2CC(C)CCC2c2ccc3scnc3c2)cnc1N (centres unmarked) [TNG908]
- EC50 (SDMA in MTAP WT cells [7]): 135 nM
